Results from patent US12697367B2, “Medicament for improving or preventing symptoms relating to retina and/or light reception and method for screening for substance capable of improving or preventing symptoms relating to retina and/or light reception” (Osaka University, priority 2018, dated 2026).

Experiments:
[1] = test system: BALB/c mice with light-induced damage (blue LED light); assay: Light-induced damage experiment in mice: immunofluorescence staining of the photoreceptor layer of the retina; format: in vivo; conditions: tacrolimus 10 mg/kg subcutaneously every day for 6 days
Method: For dark adaptation, BALB/c mice aged 4 weeks (Japan SLC, Inc.) were housed in the dark for 12 hours. […] For control mice, DMSO was administered. Mydriatic eye drops, […] Pharmaceutical Co., Ltd.), were administered in the dark 30 minutes before completion of dark adaptation. The mice were placed in a box with four mirrored walls and a mirrored floor, and exposed to blue light from a blue LED light. The wavelength of the blue LED light was about 450 nm, and the light reaching the mice was about 7000 lx. After exposure to blue light for 3 hours, the mice were housed under normal light conditions (about 30 lx light from fluorescent lamps) for 9 hours. This dark/light cycle repeated as one cycle for 6 days. In other words, administration of the drug and exposure to blue light (3 hours) were performed every day for 6 days to induce light-induced damage. On the next day following the last exposure to blue light, the mice were euthanized and the eyes were harvested. The specimens were fixed in 4% paraformaldehyde/PBS (phosphate buffer saline) at room temperature for 5 minutes. The specimens were then washed with PBS, and embedded in O.C.T. compound (Sakura Finetek). Retinal cryosections of 20 μm thick were sliced with a cryostat, mounted on glass slides, and dried at room temperature. The sections were washed twice with PBS, and blocked with blocking buffer (5% normal donkey serum and 0.1% TritonX-100 in PBS) at room temperature for 1 hour. The sections were reacted with primary antibodies at 4° C. overnight. The sections were washed three times with PBS, and reacted with secondary antibodies at room temperature for 2 hours. The primary antibodies used in this study were anti-Rhodopsin antibody (rhodopsin, rabbit polyclonal, Santa Cruz, 1:500 dilution), anti-S-opsin antibody (S-opsin (blue cone opsin), goat polyclonal, Santa Cruz, 1:500 dilution), and anti-M-opsin antibody (M-opsin (green cone opsin), rabbit polyclonal, Millipore, 1:500 dilution). […] All the fluorescence images were acquired under a confocal laser scanning microscope (LSM 700, Carl Zeiss).

[2] = test system: BALB/c mice with light-induced damage (blue LED light); assay: Light-induced damage experiment in mice: measurement of thickness of photoreceptor layer; format: in vivo; conditions: tacrolimus 10 mg/kg subcutaneously every day for 6 days; blue light about 450 nm, about 7000 lx, 3 hours daily; vs DMSO control; FIG. 3
Method: For dark adaptation, BALB/c mice aged 4 weeks (Japan SLC, Inc.) were housed in the dark for 12 hours. […] For control mice, DMSO was administered. Mydriatic eye drops, Cyplegin (Santen Pharmaceutical Co., Ltd.), were administered in the dark 30 minutes before completion of dark adaptation. The mice were placed in a box with four mirrored walls and a mirrored floor, and exposed to blue light from a blue LED light. The wavelength of the blue LED light was about 450 nm, and the light reaching the mice was about 7000 lx. After exposure to blue light for 3 hours, the mice were housed under normal light conditions (about 30 lx light from fluorescent lamps) for 9 hours. This dark/light cycle repeated as one cycle for 6 days. In other words, administration of the drug and exposure to blue light (3 hours) were performed every day for 6 days to induce light-induced damage.
Mouse retinal sections prepared in the same manner as above were washed twice with PBS, and the nuclei were stained with DAPI. The thickness of the photoreceptor layer was measured as the distance from the optic nerve. Specifically, the images were acquired under a confocal laser scanning microscope (LSM 700, Carl Zeiss), and the thickness of the photoreceptor layer was measured using the image analysis software Metamorph (Molecular Devices).

C=CC[C@@H]1/C=C(\C)C[C@H](C)C[C@H](OC)[C@H]2O[C@@](O)(C(=O)C(=O)N3CCCC[C@H]3C(=O)O[C@H](/C(C)=C/[C@@H]3CC[C@@H](O)[C@H](OC)C3)[C@H](C)[C@@H](O)CC1=O)[C@H](C)C[C@@H]2OC [tacrolimus, (3S,4R,5S,8R,9E,12S,14S,15R,16S,18R,19R,26aS)-5,19-Dihydroxy-3-{(1E)-2-[(1R,3R,4R)-4-hydroxy-3-methoxycyclohexyl]-1-methylethenyl}-14,16-dimethoxy-4,10,12,18-tetramethyl-8-(prop-2-en-1-yl)-15,19-epoxy-5,6,8,11,12,13,14,15,16,17,18,19,24,25,26,26a-hexadecahydro-3H-pyrido[2,1-c][1,4]oxaazacyclotricosine-1,7,20,21(4H,23H)-tetrone monohydrate]
structure of the outer segment of the rod photoreceptor cells (anti-Rhodopsin antibody staining) ([1]; blue light about 450 nm, about 7000 lx, 3 hours daily, vs DMSO control, FIG. 1): maintained and comparable to that of control mice without light-induced damage
structure of the cone photoreceptor cells (anti-S-opsin and anti-M-opsin antibody staining) ([1]; blue light about 450 nm, about 7000 lx, 3 hours daily, vs DMSO control, FIG. 2): maintained and comparable to that of control mice without light-induced damage
degeneration of photoreceptor cells due to light exposure (overall conclusion) ([1]; mice with light-induced damage): inhibits the degeneration of photoreceptor cells due to light exposure
thickness of the photoreceptor layer [2]: maintained and comparable to that of control mice without light-induced damage
